Assay results from US20250009765A1, “COMPOSITIONS AND METHODS FOR REDUCING SLEEP DI[…] TREATING SLEEP DISORDERS” (FloraScience Inc., priority 2023, published 2025).

Tests used:
Assay type in all cases: in vivo, human
sleep disturbance [1] = assay: PROMIS Sleep Disturbance 8A survey, randomized blinded placebo-controlled study; details: for Relative Risk for meaningful clinical improvement on the PROMIS Sleep Disturbance 8A / Estimated marginal percentage achieving meaningful clinical improvement on the PROMIS Sleep 8A: 95% CI in parentheses; for Observed % Achieving Meaningful Clinical Improvement on the PROMIS Sleep 8A: 30% or greater reduction from baseline; for % experiencing MCID in PROMIS Sleep Disturbance 8A score: MCID = score reduction of one half the standard deviation of the baseline score; for Estimated marginal percentage achieving meaningful clinical improvement on the PROMIS Sleep 8A: improvement = 30% or greater reduction from baseline; for Parameter Estimate for PROMIS Sleep Disturbances 8a, Treatment: reference placebo, linear mixed-effects model
Description: (§1) The primary aim of this study was to assess the effects of three different formulations of TruCBN softgels and a formulation of 4 mg melatonin on sleep quality, relative to placebo control. There were 5 arms within the study; (1) 4 mg melatonin, (2) 25 mg CBN, (3) 50 mg CBN, (4) 100 mg CBN, and (5) placebo (see Table 1 for further details on study arm formulations). All study arms provided the test article as a softgel. Participants were instructed to take 1 softgel 1-2 hours before bed. To ensure that results were not biased, participants were randomly assigned to product, were blinded to the contents, and were not told what they were taking until the conclusion of the study. The secondary aim of the study was to assess the tolerability of the three formulations of TruCBN softgels and 4 mg melatonin, relative to placebo.
(§2) Study participants were at least 21 years old, endorsed a desire for better sleep quality, and expressed interest in taking a cannabinoid product to improve their sleep. The study was entirely virtual; participants were recruited through online recruitment channels, study product was delivered directly to participants' homes, and all data were collected via online surveys delivered to their mobile device or computer. There were four phases of the study (see FIG. 1 for study timeline): (1) Recruitment and Randomization, (2) Baseline (1 week), (3) Study period (2-5 weeks), and (4) Conclusion.
PROMIS™ Sleep Disturbance 8A: An 8-question survey, with severity thresholds based on T-scores not raw scores. The severity scores are established as follows: • “None to slight”=Less than 55 • “Mild”=55.0-59.9 • “Moderate”=60.0-69.9 • “Severe”=70 and up
The range of raw scores were from 8 to 40, with higher scores translating to greater sleep disturbance (i.e., worse sleep quality). PROMIS™ Sleep Disturbance 8A threshold for minimally important difference: One-half the standard deviation of the baseline score (Purvis, Taylor E. et al., SPINE, 2018, 43(21):1512-1520).
(§3) After receiving study product, each participant was instructed to take 1 softgel each day orally 1-2 hours before bed and complete weekly health and product use surveys. This phase of the study lasted about 4 weeks.
(§4) For precision, adjustments were made for sex, age, race, ethnicity, and body mass index (BMI) in every model. […] Analysis was conducted using Stata 17 and R. An intent-to-treat analysis was run, meaning that all participants who were assigned product (aside from the aforementioned exclusions) were included in the analysis according to their product assignment, regardless of product adherence or study attrition. Visuals of the predicted marginal means of health scores, rather than the raw mean scores, were prepared. Predicted marginal means were calculated from the statistical models and better represent the true differences between arms adjusting for any potential imbalances across arms. A finding that was “significant” means that the likelihood of falsely rejecting the null hypothesis that there were no differences between groups was very small (less than 5%; i.e., the p-value was less than 0.05). In other words, when certain findings were said to be “significant” they are not considered the result of random variation.

[2] = Average time to effect reported by participants; details: oral
Description: as §3
Participants reported experiencing an effect between 46 and 55 minutes after taking their study product.

sleep disturbance [3] = assay: Participant global impression of change (PGIC) in sleep disturbance; details: for Odds Ratio (95% Confidence interval), sleep disturbance PGIC: Dunnett correction; for Parameter estimate for PGIC in sleep disturbance: treatment reference placebo, log-odds scale
Description: as §1
Participants received a final study survey asking about their overall experiences and impressions. Afterwards they also receive a Report containing their individualized data.
as §4

[4] = Tolerability: side effects reported by participants
Description: as §1, §3
The side effects for all study arms were similar in frequency and mostly mild; none were considered serious or required use of emergency or non-emergency healthcare services. The most commonly reported side effect was grogginess or drowsiness (see FIG. 7). Additional side effects reported by some participants included: chest pain, constipation, urinary tract infection, tingling in lips, dry mouth, weight gain, dry or itchy eyes, low libido, rash, and brain fog.

sleep disturbance [5] = assay: PROMIS Sleep Disturbance SF4A survey, randomized blinded placebo-controlled study; details: for Relative Risk for meaningful clinical improvement on the PROMIS Sleep SF4A / Estimated marginal percentage achieving meaningful clinical improvement on the PROMIS Sleep SF4A: 95% CI in parentheses; for Observed % Achieving Meaningful Clinical Improvement on the PROMIS Sleep SF4A: 30% or greater reduction from baseline; for Estimated marginal percentage achieving meaningful clinical improvement on the PROMIS Sleep SF4A: improvement = 30% or greater reduction from baseline
Description: as §1, §2
The PROMIS™ Sleep Disturbance SF4A threshold for minimally important difference: One-half the standard deviation of the baseline score (Norman, G. R. et al., Med. Care, 2003, 41:582-592).
as §3, §4

Structure (SMILES): CCCCCc1cc(O)c2c(c1)OC(C)(C)c1ccc(C)cc1-2 [CBN, 6,6,9-trimethyl-3-pentyl-benzo[c]chromen-1-ol]
- Relative Risk for meaningful clinical improvement on the PROMIS Sleep Disturbance 8A (sleep disturbance [1]; 25 mg CBN − placebo): 1.33 (0.65, 2.01)
- Observed % Achieving Meaningful Clinical Improvement on the PROMIS Sleep 8A (sleep disturbance [1]; 25 mg CBN): 46.7%
- % experiencing MCID in PROMIS Sleep Disturbance 8A score (sleep disturbance [1]; 25 mg CBN): 46.7%
- Estimated marginal percentage achieving meaningful clinical improvement on the PROMIS Sleep 8A (sleep disturbance [1]; 25 mg CBN): 47.1% (35.41%, 62.66%)
- Parameter Estimate for PROMIS Sleep Disturbances 8a, Treatment (sleep disturbance [1]; 25 mg CBN): 0.14
- Estimated marginal mean, PROMIS Sleep Disturbance 8A (sleep disturbance [1]; 25 mg CBN, week 1): 21.6
- Estimated marginal mean, PROMIS Sleep Disturbance 8A (sleep disturbance [1]; 25 mg CBN, week 2): 20.6
- Estimated marginal mean, PROMIS Sleep Disturbance 8A (sleep disturbance [1]; 25 mg CBN, week 3): 21.3
- Estimated marginal mean, PROMIS Sleep Disturbance 8A (sleep disturbance [1]; 25 mg CBN, week 4): 20.9
- Relative Risk for meaningful clinical improvement on the PROMIS Sleep Disturbance 8A (sleep disturbance [1]; 50 mg CBN − placebo): 1.46 (0.72, 2.2)
- Observed % Achieving Meaningful Clinical Improvement on the PROMIS Sleep 8A (sleep disturbance [1]; 50 mg CBN): 53.6%
- % experiencing MCID in PROMIS Sleep Disturbance 8A score (sleep disturbance [1]; 50 mg CBN): 53.6%
- Estimated marginal percentage achieving meaningful clinical improvement on the PROMIS Sleep 8A (sleep disturbance [1]; 50 mg CBN): 51.6% (38.93%, 68.48%)
- Parameter Estimate for PROMIS Sleep Disturbances 8a, Treatment (sleep disturbance [1]; 50 mg CBN): 0.28
- Estimated marginal mean, PROMIS Sleep Disturbance 8A (sleep disturbance [1]; 50 mg CBN, week 1): 20.4
- Estimated marginal mean, PROMIS Sleep Disturbance 8A (sleep disturbance [1]; 50 mg CBN, week 2): 21
- Estimated marginal mean, PROMIS Sleep Disturbance 8A (sleep disturbance [1]; 50 mg CBN, week 3): 20.7
- Estimated marginal mean, PROMIS Sleep Disturbance 8A (sleep disturbance [1]; 50 mg CBN, week 4): 20.3
- Relative Risk for meaningful clinical improvement on the PROMIS Sleep Disturbance 8A (sleep disturbance [1]; 100 mg CBN − placebo): 1.39 (0.7, 2.08)
- Observed % Achieving Meaningful Clinical Improvement on the PROMIS Sleep 8A (sleep disturbance [1]; 100 mg CBN): 50.0%
- % experiencing MCID in PROMIS Sleep Disturbance 8A score (sleep disturbance [1]; 100 mg CBN): 50.0%
- Estimated marginal percentage achieving meaningful clinical improvement on the PROMIS Sleep 8A (sleep disturbance [1]; 100 mg CBN): 49.1% (36.96%, 65.24%)
- Parameter Estimate for PROMIS Sleep Disturbances 8a, Treatment (sleep disturbance [1]; 100 mg CBN): 0.59
- Estimated marginal mean, PROMIS Sleep Disturbance 8A (sleep disturbance [1]; 100 mg CBN, week 1): 20.99
- Estimated marginal mean, PROMIS Sleep Disturbance 8A (sleep disturbance [1]; 100 mg CBN, week 2): 21.77
- Estimated marginal mean, PROMIS Sleep Disturbance 8A (sleep disturbance [1]; 100 mg CBN, week 3): 20.84
- Estimated marginal mean, PROMIS Sleep Disturbance 8A (sleep disturbance [1]; 100 mg CBN, week 4): 20.9
- Average time to effect ([2]; 25 mg CBN softgel): 54.9 min
- Average time to effect ([2]; 50 mg CBN softgel): 55.5 min
- Average time to effect ([2]; 100 mg CBN softgel): 46.4 min
- Marginal mean (95% confidence interval), sleep disturbance PGIC (sleep disturbance [3]; 25 mg CBN): 3.81
- Odds Ratio (95% Confidence interval), sleep disturbance PGIC (sleep disturbance [3]; 25 mg CBN − placebo): 1.88 (0.98, 3.62)
- Parameter estimate for PGIC in sleep disturbance (sleep disturbance [3]; 25 mg CBN): 0.63
- Marginal mean (95% confidence interval), sleep disturbance PGIC (sleep disturbance [3]; 50 mg CBN): 3.91
- Odds Ratio (95% Confidence interval), sleep disturbance PGIC (sleep disturbance [3]; 50 mg CBN − placebo): 2.35 (1.22, 4.51)
- Parameter estimate for PGIC in sleep disturbance (sleep disturbance [3]; 50 mg CBN): 0.85
- Marginal mean (95% confidence interval), sleep disturbance PGIC (sleep disturbance [3]; 100 mg CBN): 3.91
- Odds Ratio (95% Confidence interval), sleep disturbance PGIC (sleep disturbance [3]; 100 mg CBN − placebo): 2.35 (1.24, 4.44)
- Parameter estimate for PGIC in sleep disturbance (sleep disturbance [3]; 100 mg CBN): 0.85
- % of participants reporting any side effects ([4]; 25 mg CBN): 6.8%
- % of participants reporting any side effects ([4]; 50 mg CBN): 12.9%
- % of participants reporting any side effects ([4]; 100 mg CBN): 7.9%
- Relative Risk for meaningful clinical improvement on the PROMIS Sleep SF4A (sleep disturbance [5]; 25 mg CBN − placebo): 1.35 (0.66, 2.03)
- Observed % Achieving Meaningful Clinical Improvement on the PROMIS Sleep SF4A (sleep disturbance [5]; 25 mg CBN): 47.83%
- Estimated marginal percentage achieving meaningful clinical improvement on the PROMIS Sleep SF4A (sleep disturbance [5]; 25 mg CBN): 46.28% (34.73%, 61.7%)
- Estimated marginal mean, PROMIS Sleep Disturbance SF4A (sleep disturbance [5]; 25 mg CBN, week 1): 11.0
- Estimated marginal mean, PROMIS Sleep Disturbance SF4A (sleep disturbance [5]; 25 mg CBN, week 2): 10.81
- Estimated marginal mean, PROMIS Sleep Disturbance SF4A (sleep disturbance [5]; 25 mg CBN, week 3): 11.1
- Estimated marginal mean, PROMIS Sleep Disturbance SF4A (sleep disturbance [5]; 25 mg CBN, week 4): 10.9
- Relative Risk for meaningful clinical improvement on the PROMIS Sleep SF4A (sleep disturbance [5]; 50 mg CBN − placebo): 1.59 (0.81, 2.37)
- Observed % Achieving Meaningful Clinical Improvement on the PROMIS Sleep SF4A (sleep disturbance [5]; 50 mg CBN): 58.33%
- Estimated marginal percentage achieving meaningful clinical improvement on the PROMIS Sleep SF4A (sleep disturbance [5]; 50 mg CBN): 54.76% (41.80%, 71.7%)
- Estimated marginal mean, PROMIS Sleep Disturbance SF4A (sleep disturbance [5]; 50 mg CBN, week 1): 10.7
- Estimated marginal mean, PROMIS Sleep Disturbance SF4A (sleep disturbance [5]; 50 mg CBN, week 2): 10.9
- Estimated marginal mean, PROMIS Sleep Disturbance SF4A (sleep disturbance [5]; 50 mg CBN, week 3): 10.8
- Estimated marginal mean, PROMIS Sleep Disturbance SF4A (sleep disturbance [5]; 50 mg CBN, week 4): 10.3
- Relative Risk for meaningful clinical improvement on the PROMIS Sleep SF4A (sleep disturbance [5]; 100 mg CBN − placebo): 1.47 (0.75, 2.19)
- Observed % Achieving Meaningful Clinical Improvement on the PROMIS Sleep SF4A (sleep disturbance [5]; 100 mg CBN): 53.19%
- Estimated marginal percentage achieving meaningful clinical improvement on the PROMIS Sleep SF4A (sleep disturbance [5]; 100 mg CBN): 50.56% (38.37%, 66.6%)
- Estimated marginal mean, PROMIS Sleep Disturbance SF4A (sleep disturbance [5]; 100 mg CBN, week 1): 10.8
- Estimated marginal mean, PROMIS Sleep Disturbance SF4A (sleep disturbance [5]; 100 mg CBN, week 2): 11.33
- Estimated marginal mean, PROMIS Sleep Disturbance SF4A (sleep disturbance [5]; 100 mg CBN, week 3): 10.8
- Estimated marginal mean, PROMIS Sleep Disturbance SF4A (sleep disturbance [5]; 100 mg CBN, week 4): 10.8
